{"source": "paper PMC7249419", "about": "“Probing contacts of inhibitor locked in transition states in the catalytic triad of DENV2 type serine protease and its mutants by 1H, 19F and 15 N NMR spectroscopy” (BMC Molecular and Cell Biology, 2020)", "key": {"[1]": {"molecular_target": "T1, DENV2 NS2B:NS3pro (Dengue virus type 2, UniProt P29990)", "T1 construct": "DENV2 NS3pro (1–185; amino acids 1476–1660 of the polyprotein); NS2B (containing amino acids 1394–1440 of the Dengue 2 polyprotein); His tag; made in house; host or cells: Escherichia coli BL21Star (DE3)", "assay": "Biochemical protease activity assay, fluorogenic AMC substrate", "design": "species or system serotype II Dengue virus (DENV2)", "details": "50 mM HEPES pH 7.4, 150 mM NaCl, 10% ethylene glycol, 0.05% BSA, 0.0016% Brij-58; 80 nM enzyme; 20 μM Bz-nle-Lys-Arg-Arg-AMC; fluorescence 390/460 nm every 30 s for 30 min; three parameter IC50 fit", "experimental": "Activity assays were carried out on a 96-well plate (white Cliniplate, Thermo Fisher Scientific Oy, Vantaa, Finland) in 50 mM HEPES, pH 7.4, 150 mM NaCl, 10% ethylene glycol, 0.05% BSA, 0.0016% Brij-58 with 80 nM enzyme using 20 μM Bz-nle-Lys-Arg-Arg-AMC (Bachem, Bubendorf, Switzerland) as substrate. Reagents were from Sigma (St. Louis, MO, USA) unless otherwise stated.\n5 μl of 200 μM substrate in buffer and 2.5 μl of compound in DMSO or DMSO control were added to the plate. 42.5 μl of […] enzyme in buffer was added to start the reaction. Fluorescence was read every 30 s for 30 min at 390 nm excitation and 460 nm emission in a Fluorskan Ascent plate reader (Thermo Fisher Scientific Oy, Vantaa, Finland). Rates were fitted in the Ascent software and exported as Excel files. The rates were imported into GraphPad Prism (GraphPad Software Inc., La Jolla, CA, USA) and fitted to the standard three parameter IC50 equation."}, "[2]": {"molecular_target": "T1, DENV2 NS2B:NS3pro", "assay": "1H-15N TROSY chemical shifts/CSP, oxyanion hole and H51 of NS2B:NS3pro complexes", "format": "binding, serotype II Dengue virus (DENV2)", "experimental": "(§1) The NS2B:NS3pro complex was concentrated in disposable centrifugal concentrators (e.g. Amicon Ultra centrifugal filter units) with a molecular weight cut-off of 10 kDa. The complex was stable during concentration and no leakage of NS2B occurred. Buffer was exchanged using gravity flow desalting columns (GE Healthcare). The NMR buffer contained 20 mM deuterated MES, 100 mM NaCl, 5 mM CaCl2, 0.02% NaN3, at pH 6.5. The buffer-exchanged protein was concentrated to at least 0.3 mM. To obtain spectra in D2O buffer protein complex with inhibitor was lyophilized and dissolved adding only D2O water.\n(§2) NMR experiments were acquired on Bruker Avance III spectrometers operating at 14.1 and 16.4 T at a temperature of 298 K. 2D ^1H-^15N TROSY -transverse relaxation optimized spectroscopy (TROSY) was used. ^19F experiments were acquired on a Bruker Avance III 16.4 T equipped with a QCIF CryoProbe, and internally referenced to the trifluoromethyl acetate counter ion (− 76.55 ppm). For solvent isotope shift measurements the buffer was exchanged from 90% H2O to 90% D2O using centrifugation filters by following dilution of the sample till starting concentration. The consistency of the procedure has been tested through comparison of the ^1H-^15N spectra before and after buffer exchange back to starting condition. There was no major structural perturbations resulted from exchange into deuterated buffer conditions. Protein detected experiments with ligand bound used a chemical shift perturbation (CSP) analysis was performed manually in CcpNmr Analysis 2.2.2 [60]. CSP was defined as the distance between two cross peaks in Hz, obtained as the square root of the sum of quadratic using DANGLE [61].\nBackbone resonance assignment of the NS2B:NS3pro with tetra peptide boronic acid (I) was performed as described previously by us with depositing to the BioMagResBank with accession code 26996 [10, 62], and compared with published earlier for the same inhibitor complex but with the linked construct Dengue I NS2B:NS3pro (BioMagResBank with accession code 19305). Backbone resonance assignment have been done in the same manner for the complex NS2B:NS3pro with the tetra peptide tfk ligand (II) as well and will be published elsewhere. Partial assignments of the ^1H and ^15N resonances presented in this publication of the apo form NS2B:NS3pro and its mutants in complex with inhibitors observed to the uncrowded area of the ^1H-^15N spectra are made by the extrapolation of corresponding cross peaks to the closest one known amino acids using CCPN program tool. […]"}, "[3]": {"molecular_target": "T1, DENV2 NS2B:NS3pro", "assay": "Low field 1D 1H NMR of NS2B:NS3pro complexes (LBHB, H51-D75)", "format": "binding, serotype II Dengue virus (DENV2)", "experimental": "as §1, with “The NMR buffer contained 20 mM deuterated MES, 100 mM NaCl, 5 mM CaCl2, 0.02% NaN3, at pH 6.5.” left out\nas §2"}, "[4]": {"tested_on": "NS2B:NS3pro (H51N)", "assay": "19F and 1H-15N TROSY NMR binding to H51N mutant", "design": "species or system serotype II Dengue virus (DENV2)", "details": "1H-15N TROSY and 19F NMR, same protein:inhibitor ratio as wild type", "text": "(§3) Reagents were from Sigma (St. Louis, MO, USA) unless otherwise stated. DENV2 NS3pro (1–185; amino acids 1476–1660 of the polyprotein) and NS2B (containing amino acids 1394–1440 of the Dengue 2 polyprotein) constructs were generated as described. H51N and S135A mutations of active site residues were introduced using the QuikChange Lightning kit (Agilent); a double H51N/S135A mutant was generated sequentially. All sequences were confirmed by Sanger sequencing. NS2B and NS3pro were expressed separately in Escherichia coli expression strain BL21Star (DE3) (Life Technologies) as described. Proteins were expressed in Terrific Broth medium (MP Biomedicals) for unlabelled protein or in different isotopic labelling combinations in ^1/2H, ^15N, ^12/13C-labelled M9 medium for labelled protein [54]. […]\n(§4) NMR experiments were acquired on Bruker Avance III spectrometers operating at 14.1 and 16.4 T at a temperature of 298 K. 2D ^1H-^15N TROSY -transverse relaxation optimized spectroscopy (TROSY) was used. ^19F experiments were acquired on a Bruker Avance III 16.4 T equipped with a QCIF CryoProbe, and internally referenced to the trifluoromethyl acetate counter ion (− 76.55 ppm). […] Protein detected experiments with ligand bound used a chemical shift perturbation (CSP) analysis was performed manually in CcpNmr Analysis 2.2.2 [60]. […]"}, "[5]": {"molecular_target": "T1, DENV2 NS2B:NS3pro", "assay": "19F NMR monitoring of inhibitor binding to wild-type NS2B:NS3pro", "design": "species or system serotype II Dengue virus (DENV2)", "details": "298 K", "text": "The subside part of peptide types of inhibitors either improves or prevents correct binding with the enzyme in the most favourable way. One way to probe stereo-selectivity in enzymes is to study an inhibitor with the wrong stereochemistry around the carbon, Cα, of the P1 (Arg) (for abbreviation see Table 1). The key question is: could both isomers bind to NS2B:NS3pro complex? If yes, is there any difference in affinity between them. To challenge these questions two separated diastereomers of Ph-Bz-Lys-Lys-Arg-CF3-ketone (III) (Table 1) with low affinity were used to observe the binding. The isolated diastereomers were kept in solution with and without the NS2B/NS3 complex for two months with measuring at several points. For the first separated isomer (IIIa), only one ^19F resonance is observed at − 82.83 ppm in the unbound state (Fig. 1a). […]\nas §4"}, "[6]": {"tested_on": "NS2B:NS3pro (S135A)", "assay": "19F and 1H-15N TROSY NMR binding to S135A mutant", "design": "species or system serotype II Dengue virus (DENV2)", "details": "1H-15N TROSY and 19F NMR", "text": "as §3, §4"}, "[7]": {"molecular_target": "T1, DENV2 NS2B:NS3pro", "details": "earlier NMR study; cited from earlier work", "text": "The unusual large low-filed shift of N^δ1H (19.93 ppm) of H51 combined with a N-H splitting of only 52 Hz clearly indicated the ..."}, "[8]": {"molecular_target": "T1, DENV2 NS2B:NS3pro", "assay": "19F NMR solvent isotope shift (H2O vs D2O), water accessibility of NS2B:NS3pro complex", "design": "species or system serotype II Dengue virus (DENV2)", "details": "inhibitor bound to DENV2 NS2B:NS3pro", "experimental": "The accessibility of water in the binding site of the complex with bound inhibitor was tested by studying the ^19F spectra of the complexes NS2B:NS3pro (II) in two different solvents: H2O and D2O (Fig. S2). […] This CSP was scaled versus the signals of the same group of the unbound ligand, ca 48 Hz (Fig. S2c). The conclusion is that ^19F nuclei of the benzene ring of the bound inhibitor are partly exposed to the solvent even in the bound state.\nas §1, with “The buffer-exchanged protein was concentrated to at least 0.3 mM. To obtain spectra in D2O buffer protein complex with inhibitor was lyophilized and dissolved adding only D2O water.” left out\nas §4"}}, "note": "“And” between values parts separate entries of the source, which are not always exact repeats. Equal values may be shown once. “Also recorded” adds a separate entry of the source. Non-standard residues stand in square brackets, D forms with d. Residues, ends and D or L forms follow the SMILES beside them. ξ: configuration not given here. *: point of attachment. Benzoyl(2,6-F2) = O=C(c1c(F)cccc1F)*; Benzoyl(4-F) = O=C(c1ccc(F)cc1)*; ξR = N=C(N)NCCCC(N)C(=O)O; Nle = CCCC[C@H](N)C(=O)O; Bz = O=C(c1ccccc1)*; CF3 = FC(F)(F)*"}
{"compound": "CCCC[C@H](NC(=O)c1ccc(F)cc1)C(=O)N[C@@H](CCCCN)C(=O)N[C@@H](CCCNC(=N)N)C(=O)NC(CCCNC(=N)N)C(=O)C(F)(F)F", "note": "(stereo partly drawn) [V, N-((9S,12S,15S)-1-amino-12-(4-aminobutyl)-9-(3-guanidinopropyl)-1-imino-8,11,14-trioxo-6-(2,2,2-trifluoroacetyl)-2,7,10,13-tetraazanonadecan-15-yl)-4-fluorobenzamide] ({Benzoyl(4-F)}-[Nle]KR[ξR]-CF3)", "values": [{"measurement": "IC50", "setting": "[1]", "result": 24, "unit": "µM"}]}
{"compound": "CCCC[C@H](NC(=O)c1ccccc1)C(=O)N[C@@H](CCCCN)C(=O)N[C@@H](CCCNC(=N)N)C(=O)N[C@@H](CCCNC(=N)N)B(O)O", "note": "[I, ((3S,6S,9S,12R)-17-amino-6-(4-aminobutyl)-3-butyl-9-(3-guanidinopropyl)-17-imino-1,4,7,10-tetraoxo-1-phenyl-2,5,8,11,16-pentaazaheptadecan-12-yl)boronic acid]", "values": [{"measurement": "H51-HN 1H chemical shift in complex", "setting": "[2]; apo 10.56 and 10.18 ppm", "result": 10.03, "unit": "ppm"}, {"measurement": "H51-HN 15N chemical shift in complex", "setting": "[2]; apo 114.44 and 114.37 ppm", "result": 113.50, "unit": "ppm"}, {"measurement": "Amide CSP of the oxyanion hole", "setting": "[2]; complex vs apo form", "result": "~0.3", "unit": "ppm"}, {"measurement": "Interaction with oxyanion hole", "setting": "[2]; complex with NS2B:NS3pro", "result": "we did not observe interaction of G133 in the oxyanion hole; also recorded: no interaction with the oxyanion hole"}, {"measurement": "Decrease of Nδ1H one-bond coupling vs commonly reported serine proteases", "setting": "[3]; commonly 87-95 Hz", "result": "about 38 Hz"}, {"measurement": "One bond JNH of Nδ1H H51, 19.93 ppm signal", "setting": "[3]; first tautomer", "result": "52+/− 2 Hz and 52 Hz"}, {"measurement": "One bond JNH of Nε2H H51", "setting": "[3]; first tautomer", "result": "90+/− 2 Hz and 90 Hz"}, {"measurement": "Nδ1H of H51, second tautomer, 1H chemical shift", "setting": "[3]; most persistent signal, pH 8.5 Tris", "result": "19.77 ppm and 19.772 ppm"}, {"measurement": "pH dependence of low field 1H chemical shift", "setting": "[3]; pH 5.5 to 8.5", "result": "None of the signals in this region shift between pH 5.5 and 8.5"}, {"measurement": "Nδ1H of H51, first tautomer, 1H chemical shift", "setting": "[3]; pH 6.0 MES, not always observed", "result": "19.93 ppm and 19.933 ppm"}, {"measurement": "One bond JNH of Nδ1H H51, 19.77 ppm signal", "setting": "[3]; second tautomer", "result": "52+/− 2 Hz and 52 Hz"}, {"measurement": "Affinity / complex formation with H51N mutant", "setting": "[4]", "result": "saturation of the protease and inhibitor complex could not be reached"}, {"measurement": "Binding to NS2B:NS3pro / affinity in words (NMR)", "setting": "[5]", "result": "the former has higher affinity than the latter"}, {"measurement": "Binding to S135A mutant", "setting": "[6]", "result": "do not interact with the S135A mutant; also recorded: no binding was observed; also recorded: complete absence of any binding"}, {"measurement": "N-H splitting of Nδ1H of H51", "setting": "[7]", "result": 52, "unit": "Hz"}, {"measurement": "NδH shift of H51 in complex", "setting": "[7]", "result": 19.93, "unit": "ppm"}, {"measurement": "Bulk water access to active site", "setting": "[8]", "result": "bulk water is excluded from the active site"}]}
{"compound": "CCCC[C@H](NC(=O)c1c(F)cccc1F)C(=O)N[C@@H](CCCCN)C(=O)N[C@@H](CCCNC(=N)N)C(=O)NC(CCCNC(=N)N)C(=O)C(F)(F)F", "note": "(stereo partly drawn) [II, N-((9S,12S,15S)-1-amino-12-(4-aminobutyl)-9-(3-guanidinopropyl)-1-imino-8,11,14-trioxo-6-(2,2,2-trifluoroacetyl)-2,7,10,13-tetraazanonadecan-15-yl)-2,6-difluorobenzamide] ({Benzoyl(2,6-F2)}-[Nle]KR[ξR]-CF3)", "values": [{"measurement": "IC50", "setting": "[1]", "result": 19, "unit": "µM"}]}
{"compound": "CCCC[C@H](NC(=O)c1ccccc1)C(=O)N[C@@H](CCCCN)C(=O)N[C@@H](CCCNC(=N)N)C(=O)NC(CCCNC(=N)N)C(=O)C(F)(F)F", "note": "(stereo partly drawn) [IV, N-((9S,12S,15S)-1-amino-12-(4-aminobutyl)-9-(3-guanidinopropyl)-1-imino-8,11,14-trioxo-6-(2,2,2-trifluoroacetyl)-2,7,10,13-tetraazanonadecan-15-yl)benzamide] (Bz-[Nle]KR[ξR]-CF3)", "values": [{"measurement": "IC50", "setting": "[1]", "result": 11, "unit": "µM"}]}
{"compound": "Bz-Nle-Lys-Arg-Arg-CF3-ketone [IVa, isomer IVa of (IV), free 19F at − 82.82 ppm]", "values": [{"measurement": "Binding to NS2B:NS3pro / affinity in words (NMR)", "setting": "[5]", "result": "the signal of only one isomer (IVa) re-appeared"}]}
